Experimental findings from ChEMBL document CHEMBL6127027, “Conserved gatekeeper methionine regulates the binding and access of kinase inhibitors to ATP sites of MAP2K1, 4, and 7: Clues for developing selective inhibitors” (Bioorg Med Chem Lett, 2024) are described below.

Active and inactive are the calls of the source. No cut-off for these calls is given here.

Test [1] addresses T1, Dual specificity mitogen-activated protein kinase kinase 4 (Homo sapiens, UniProt P45985).
T1 sequence (P45985 whole entry): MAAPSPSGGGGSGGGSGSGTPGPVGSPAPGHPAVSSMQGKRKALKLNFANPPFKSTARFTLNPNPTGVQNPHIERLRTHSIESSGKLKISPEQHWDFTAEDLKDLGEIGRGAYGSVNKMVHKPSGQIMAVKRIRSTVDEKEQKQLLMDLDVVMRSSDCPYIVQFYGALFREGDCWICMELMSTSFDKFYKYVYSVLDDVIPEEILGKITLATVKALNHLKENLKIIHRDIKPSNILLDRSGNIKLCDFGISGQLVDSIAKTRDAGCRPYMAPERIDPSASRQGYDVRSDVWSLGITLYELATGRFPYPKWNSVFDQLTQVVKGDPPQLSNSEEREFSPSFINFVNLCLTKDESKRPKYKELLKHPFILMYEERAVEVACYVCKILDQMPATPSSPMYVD
Nature of the test: Inhibition of MAP2K4 (unknown origin).

Test [2] deals with Dual specificity mitogen-activated protein kinase kinase 1 (Homo sapiens, UniProt Q02750). Nature of the test: Inhibition of MAP2K1 (unknown origin).
Chain of Dual specificity mitogen-activated protein kinase kinase 1 (Q02750 whole entry): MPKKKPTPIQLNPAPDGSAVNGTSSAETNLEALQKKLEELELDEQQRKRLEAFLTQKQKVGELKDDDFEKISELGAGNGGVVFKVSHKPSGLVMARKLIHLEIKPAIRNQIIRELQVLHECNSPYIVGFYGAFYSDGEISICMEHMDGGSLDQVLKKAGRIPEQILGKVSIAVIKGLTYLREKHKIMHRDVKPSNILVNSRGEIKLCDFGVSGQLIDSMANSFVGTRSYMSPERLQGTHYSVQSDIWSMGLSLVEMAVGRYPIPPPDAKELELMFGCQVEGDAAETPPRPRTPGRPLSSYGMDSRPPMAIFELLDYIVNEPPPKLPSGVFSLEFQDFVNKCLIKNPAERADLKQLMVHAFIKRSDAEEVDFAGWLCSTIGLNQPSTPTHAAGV
Test [3] deals with T2, Dual specificity mitogen-activated protein kinase kinase 7 (Homo sapiens) (UniProt O14733).
T2 sequence (whole entry): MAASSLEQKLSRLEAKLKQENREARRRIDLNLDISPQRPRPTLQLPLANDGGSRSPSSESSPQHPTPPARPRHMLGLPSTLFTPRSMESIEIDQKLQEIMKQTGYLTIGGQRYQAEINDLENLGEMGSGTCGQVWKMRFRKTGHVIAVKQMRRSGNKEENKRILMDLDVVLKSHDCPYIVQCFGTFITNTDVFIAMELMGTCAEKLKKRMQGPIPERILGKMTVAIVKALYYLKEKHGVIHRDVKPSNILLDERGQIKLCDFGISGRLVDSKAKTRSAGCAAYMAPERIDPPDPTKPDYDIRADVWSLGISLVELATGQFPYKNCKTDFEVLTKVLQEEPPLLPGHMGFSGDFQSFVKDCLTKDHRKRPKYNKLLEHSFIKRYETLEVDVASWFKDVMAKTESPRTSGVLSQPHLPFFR
Nature of the test: Inhibition of MAP2K7 (unknown origin) at 100 uM relative to control.

The target in test [4] is T3, Dual specificity mitogen-activated protein kinase kinase 4 (Homo sapiens) (UniProt P45985).
T3 sequence (whole entry): T1 sequence (P45985 whole entry)
Nature of the test: Inhibition of MAP2K4 (unknown origin) at 100 uM.

`COc1cc(O)c2c(c1)/C=C/C[C@H](O)[C@H](O)C(=O)/C=C\C[C@H](C)OC2=O`: the IC50 (usually the point on the concentration scale where inhibition reaches its midpoint) in test [1] was 4.7 µM.

As to `COc1cc(O)c2c(c1)/C=C/C[C@H](O)[C@H](O)C(=O)CCC[C@H](C)OC2=O`, the IC50 in test [2] was 5.2 µM. Moreover, the inhibition (as a rule, the change of the read-out against control, counted positive when it falls) in test [3] was 25%. Besides, the inhibition entry in test [4] was “inactive”.
